Reference: patent US20040254173A1, “Modulation of dopamine responses with substituted (S)-2,3-benzodiazepines” (priority 2003, published 2004)

Test system: apomorphine-induced hypothermia, stereotypies and climbing
Test: Low Dose Apomorphine Test in the mouse
Format: in vivo
Details: for STEREOTYPY (intensity score), 20 min after apomorphine, mean ± s.e.m. / STEREOTYPY (intensity score), 50 min after apomorphine, mean ± s.e.m.: 4 point scale (0-3); for CLIMBING (No. of mice), 20 minutes after apomorphine / CLIMBING (No. of mice), 50 minutes after apomorphine: 6 mice per group; for Rectal Temperature, 30 min after apomorphine, mean change from control / Rectal Temperature, 60 min after apomorphine, mean change from control / STEREOTYPY (intensity score), 20 min after apomorphine, mean change from control / STEREOTYPY (intensity score), 50 min after apomorphine, mean change from control: vs vehicle; for Rectal Temperature, before apomorphine, mean ± s.e.m.: 30 min after test substance
Source text: Racemic tofisopam, (R)-tofisopam and (S)-tofisopam were investigated in the Low Dose Apomorphine Test in the mouse to evaluate their pro- or anti-dopaminergic activity following intraperitoneal (i.p.) administration of apomorphine. Apomorphine, at a low dose, induces hypothermia, stereotypies and climbing. All three of these symptoms are potentiated by dopaminergic agonists and antagonized by dopamine antagonists, such as classical neuroleptics. The Low Dose Apomorphine Test, thus serves to detect pro- or antidopaminergic activity. The test was performed according to the protocols described by Chermat and Poncelet. See, Chermat R., Poncelet M., “Antagonisme des redressements, des stéréotypies et de l'hypotheimie induits par 1 ou 16 mg.kg-1 d'apomorphine,” J. Pharmacol., 14, 93-97, 1983.
Male mice of Rj: NMRI strain, 23-26 g body weight range were supplied by Elevage Janvier, 53940 Le Genest-Saint-Isle, France. The animals were delivered to the laboratory at least 3 days before the experiment and, upon arrival, were housed 10 per cage in macrolon cages (25×19×13 cm) containing wood shavings (Litalabo-SPPS, 95100 Argenteuil, France) with free access to food (UAR 113-UAR, 91360 Epinay-sur-Orge, France) and tap water (i.e. non-fasted) until tested. The animal house was maintained under artificial lighting (12 hours) between 7.00 and 19.00 in a controlled ambient temperature of 21±1° C., and relative humidity maintained at 40-70%.
The different treatments were equally distributed between the animals. During the experiment, each animal within a cage received the same treatment. Animals within a cage were individually marked on the tail with an indelible pen.
The experiment was conducted blind with treatment vials labeled A, B, C etc., according to a standardized coding procedure. The evaluation of the different treatments was balanced over time by testing successive series of individual animals from each treatment group in a fixed rotation (A, B, C, etc.). Animals were sacrificed at the end of the experiment by exposure to CO2.
Three compounds, racemic tofisopam, (R)-tofisopam and (S)-tofisopam were tested in the Low Dose Apomorphine Test. Each of these three compounds was dosed as a dispersion in 0.2% hydroxypropylmethylcellulose (HPMC) (Sigma), in sterile physiological saline (Laboratoire Aguettant).
Two reference standards were also dosed. Bromocriptine, methanesulfonate (Sigma), a known dopamine agonist, and haloperidol (Sigma), a known dopamine antagonist, were dispersed in 0.2% HPMC in sterile physiological saline.
Apomorphine hydrochloride, the dopamine mimetic employed in the assay, was dissolved in water for injectable preparation (Laboratoire Aguettant). Dosing: All of the dosed substances were administered in a volume of 10 ml/kg. The doses are expressed in mg/kg of supplied substance.
6 mice were studied per group. The test was performed blind.
Racemic tofisopam, (R)-tofisopam and (S)-tofisopam were administered at doses of 16, 32 and 64 mg/kg, administered intraperitonealy (i.p.), 30 minutes prior to administration of apomorphine.
The rectal temperature of the mice was measured prior to apomorphine dosing using a rectal probe (Physitemp Instruments Digital Laboratory Thermometer Model BAT-12). The mice were then placed in individual Plexiglas cages (10×6×4 cm) attached with the opening against a vertical wire grid.
The mice were then injected subcutaneously (s.c.) with apomorphine (1 mg/kg). Rectal temperature was measured 30 and 60 minutes after the injection of apomorphine.
The intensity of stereotypies (sniffing, licking, gnawing), were scored at 20 minutes and 50 minutes after injection of apomorphine on a 4 point scale (0-3). The presence (1) or absence (0) of climbing against the wire grid wall, were also assessed 20 and 50 minutes after injection of apomorphine.
The reference standards bromocriptine (16 mg/kg) and haloperidol (0.5 mg/kg), were administered under the same experimental conditions.

[1] = 16 mg/kg i.p. 30 min before apomorphine 1 mg/kg s.c.
[2] = 16 mg/kg i.p. 30 min before apomorphine 1 mg/kg s.c., mouse
[3] = 32 mg/kg i.p. 30 min before apomorphine 1 mg/kg s.c.
[4] = 32 mg/kg i.p. 30 min before apomorphine 1 mg/kg s.c., mouse
[5] = 64 mg/kg i.p. 30 min before apomorphine 1 mg/kg s.c.
[6] = 64 mg/kg i.p. 30 min before apomorphine 1 mg/kg s.c., mouse

## CC[C@H]1C(C)=NN=C(c2ccc(OC)c(OC)c2)c2cc(OC)c(OC)cc21 [(R)-tofisopam, (R)-1-(3,4-dimethoxyphenyl)-4-methyl-5-ethyl-7,8-dimethoxy-5H-2,3-benzodiazepine]
[1]
  STEREOTYPY (intensity score), 20 min after apomorphine, mean ± s.e.m.: 2.8 ± 0.2
  STEREOTYPY (intensity score), 50 min after apomorphine, mean ± s.e.m.: 1.0 ± 0.3
  CLIMBING (No. of mice), 20 minutes after apomorphine: 6 No. of mice
  CLIMBING (No. of mice), 50 minutes after apomorphine: 5 No. of mice
  Rectal Temperature, 30 min after apomorphine, mean change from control: 0.0 °C
  Rectal Temperature, 60 min after apomorphine, mean change from control: +0.2 °C
  STEREOTYPY (intensity score), 20 min after apomorphine, mean change from control: +0.6
  STEREOTYPY (intensity score), 50 min after apomorphine, mean change from control: 0.0
[2]
  Rectal Temperature, 30 min after apomorphine, mean ± s.e.m.: 35.1 ± 0.3 °C
  Rectal Temperature, 60 min after apomorphine, mean ± s.e.m.: 36.9 ± 0.2 °C
16 mg/kg i.p., mouse
  Rectal Temperature, before apomorphine, mean ± s.e.m.: 37.3 ± 0.1 °C
[3]
  STEREOTYPY (intensity score), 20 min after apomorphine, mean ± s.e.m.: 2.2 ± 0.2
  STEREOTYPY (intensity score), 50 min after apomorphine, mean ± s.e.m.: 1.0 ± 0.3
  CLIMBING (No. of mice), 20 minutes after apomorphine: 6 No. of mice
  CLIMBING (No. of mice), 50 minutes after apomorphine: 4 No. of mice
  Rectal Temperature, 30 min after apomorphine, mean change from control: −0.5 °C
  Rectal Temperature, 60 min after apomorphine, mean change from control: −0.1 °C
  STEREOTYPY (intensity score), 20 min after apomorphine, mean change from control: 0.0
  STEREOTYPY (intensity score), 50 min after apomorphine, mean change from control: 0.0
[4]
  Rectal Temperature, 30 min after apomorphine, mean ± s.e.m.: 34.6 ± 0.4 °C
  Rectal Temperature, 60 min after apomorphine, mean ± s.e.m.: 36.6 ± 0.2 °C
32 mg/kg i.p., mouse
  Rectal Temperature, before apomorphine, mean ± s.e.m.: 37.1 ± 0.1 °C
[5]
  STEREOTYPY (intensity score), 20 min after apomorphine, mean ± s.e.m.: 1.5 ± 0.6
  STEREOTYPY (intensity score), 50 min after apomorphine, mean ± s.e.m.: 1.2 ± 0.3
  CLIMBING (No. of mice), 20 minutes after apomorphine: 3 No. of mice
  CLIMBING (No. of mice), 50 minutes after apomorphine: 2 No. of mice
  Rectal Temperature, 30 min after apomorphine, mean change from control: 0.0 °C
  Rectal Temperature, 60 min after apomorphine, mean change from control: −0.2 °C
  STEREOTYPY (intensity score), 20 min after apomorphine, mean change from control: −0.7
  STEREOTYPY (intensity score), 50 min after apomorphine, mean change from control: +0.2
[6]
  Rectal Temperature, 30 min after apomorphine, mean ± s.e.m.: 35.1 ± 0.4 °C
  Rectal Temperature, 60 min after apomorphine, mean ± s.e.m.: 36.5 ± 0.4 °C
64 mg/kg i.p., mouse
  Rectal Temperature, before apomorphine, mean ± s.e.m.: 37.2 ± 0.1 °C
16, 32 and 64 mg/kg i.p., mouse
  effect on apomorphine-induced hypothermia: did not affect
dose-range tested (16, 32, 64 mg/kg i.p.)
  effect on apomorphine-induced hypothermia, stereotypies or climbing: did not affect

## CC[C@@H]1C(C)=NN=C(c2ccc(OC)c(OC)c2)c2cc(OC)c(OC)cc21 [(S)-tofisopam, (S)-1-(3,4-dimethoxyphenyl)-4-methyl-5-ethyl-7,8-dimethoxy-5H-2,3-benzodiazepine]
[1]
  STEREOTYPY (intensity score), 20 min after apomorphine, mean ± s.e.m.: 3.0 ± 0.0
  STEREOTYPY (intensity score), 50 min after apomorphine, mean ± s.e.m.: 0.7 ± 0.2
  CLIMBING (No. of mice), 20 minutes after apomorphine: 6 No. of mice
  CLIMBING (No. of mice), 50 minutes after apomorphine: 3 No. of mice
  Rectal Temperature, 30 min after apomorphine, mean change from control: −0.3 °C
  Rectal Temperature, 60 min after apomorphine, mean change from control: +0.5 °C
  STEREOTYPY (intensity score), 20 min after apomorphine, mean change from control: +0.8
  STEREOTYPY (intensity score), 50 min after apomorphine, mean change from control: −0.3
[2]
  Rectal Temperature, 30 min after apomorphine, mean ± s.e.m.: 34.8 ± 0.4 °C
  Rectal Temperature, 60 min after apomorphine, mean ± s.e.m.: 37.2 ± 0.2 °C
16 mg/kg i.p., mouse
  Rectal Temperature, before apomorphine, mean ± s.e.m.: 37.2 ± 0.3 °C
16 mg/kg, sixty minutes after apomorphine, slight but statistically significant elevation in temperature
  behaviour on apomorphine-induced hypothermia (rectal temperature): weak dopamine antagonist
16 mg/kg, twenty minute time point
  behaviour on apomorphine-induced stereotypies: strong dopamine agonist
[3]
  STEREOTYPY (intensity score), 20 min after apomorphine, mean ± s.e.m.: 2.3 ± 0.3
  STEREOTYPY (intensity score), 50 min after apomorphine, mean ± s.e.m.: 0.3 ± 0.2
  CLIMBING (No. of mice), 20 minutes after apomorphine: 6 No. of mice
  CLIMBING (No. of mice), 50 minutes after apomorphine: 2 No. of mice
  Rectal Temperature, 30 min after apomorphine, mean change from control: −0.7 °C
  Rectal Temperature, 60 min after apomorphine, mean change from control: −0.1 °C
  STEREOTYPY (intensity score), 20 min after apomorphine, mean change from control: +0.1
  STEREOTYPY (intensity score), 50 min after apomorphine, mean change from control: −0.7
[4]
  Rectal Temperature, 30 min after apomorphine, mean ± s.e.m.: 34.4 ± 0.3 °C
  Rectal Temperature, 60 min after apomorphine, mean ± s.e.m.: 36.6 ± 0.2 °C
32 mg/kg i.p., mouse
  Rectal Temperature, before apomorphine, mean ± s.e.m.: 37.0 ± 0.2 °C
[5]
  STEREOTYPY (intensity score), 20 min after apomorphine, mean ± s.e.m.: 0.2 ± 0.2
  STEREOTYPY (intensity score), 50 min after apomorphine, mean ± s.e.m.: 0.2 ± 0.2
  CLIMBING (No. of mice), 20 minutes after apomorphine: 0+ No. of mice
  CLIMBING (No. of mice), 50 minutes after apomorphine: 0 No. of mice
  Rectal Temperature, 30 min after apomorphine, mean change from control: −1.5 °C
  Rectal Temperature, 60 min after apomorphine, mean change from control: −3.4 °C
  STEREOTYPY (intensity score), 20 min after apomorphine, mean change from control: −2.0
  STEREOTYPY (intensity score), 50 min after apomorphine, mean change from control: −0.8
[6]
  Rectal Temperature, 30 min after apomorphine, mean ± s.e.m.: 33.6 ± 0.7 °C
  Rectal Temperature, 60 min after apomorphine, mean ± s.e.m.: 33.3 ± 1.0 °C
64 mg/kg i.p., mouse
  Rectal Temperature, before apomorphine, mean ± s.e.m.: 37.2 ± 0.2 °C
64 mg/kg, twenty and fifty minute time points
  behaviour on apomorphine-induced stereotypies and climbing: strong dopamine antagonist
Higher doses (32, 64 mg/kg), thirty and sixty minute time points, lowering the rectal temperature
  behaviour on apomorphine-induced hypothermia (rectal temperature): dopamine antagonism
